In the supplement of paper PMC10627819:

Key:
[1] = tested on: S. aureus Newman; assay: fitness (endpoint OD595 vs no drug) (fraction); higher = more growth
Method in brief: (§1)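 Each well of a 384-well plate received 30 µl of culture at OD595 0.01, or 55 µl for S. pneumoniae. TSB, LB Lennox or CY served as media at 37 °C. OD595 was taken every 30 min for 14 h and corrected by subtracting the first reading. Fitness is the optical density at stationary-phase entry divided by the robust mean of no-drug controls, capped at 1.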

[2] = tested on: B. subtilis 168; assay: as above
Method in brief: as §1

[3] = tested on: S. pneumoniae D39V; assay: as above
Method in brief: as §1

[4] = tested on: S. aureus DSM 20231; assay: Bliss interaction score (quartile over a dose matrix) (fitness difference); higher = more antagonism (negative = synergy)
Method in brief: (§2)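 The Bliss score is observed minus expected fitness, where expected fitness is the product of the single-drug fitness values inferred from the combination data. Fitness is the OD595 at the onset of stationary phase over the plate's robust no-drug mean, capped at 1. Scores are summarised by quartiles over technical, biological and donor/recipient replicates.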

[5] = tested on: S. aureus Newman; assay: as above
Method in brief: as §2

[6] = tested on: B. subtilis 168; assay: as above
Method in brief: as §2

[7] = tested on: S. pneumoniae D39V; assay: as above
Method in brief: as §2

[8] = tested on: S. aureus DSM 20231; assay: fitness (endpoint OD595 vs no drug) (fraction); higher = more growth
Method in brief: as §1
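For Bliss interaction score (quartile over a dose matrix) in this document: first quartile when negative (synergy) and third quartile when positive (antagonism).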

Cc1onc(-c2ccccc2)c1C(=O)N[C@@H]1C(=O)N2[C@@H]1SC(C)(C)[C@@H]2C(=O)O [Oxacillin] + CN[C@@H]1[C@H](O[C@H]2[C@H](O[C@H]3[C@H](O)[C@@H](O)[C@H](N=C(N)N)[C@@H](O)[C@@H]3N=C(N)N)O[C@@H](C)[C@]2(O)C=O)O[C@@H](CO)[C@H](O)[C@H]1O [Streptomycin]
fitness
Conditions | partner 1 µg/mL | partner 2 µg/mL | partner 4 µg/mL | partner 8 µg/mL
[1], first compound 0.0156 µg/mL | 0.808 | 0.726 | – | –
[1], first compound 0.0312 µg/mL | 0.738 | 0.644 | – | –
[1], first compound 0.0625 µg/mL | 0.606 | 0.531 | – | –
[2], first compound 0.002 µg/mL | – | 0.982 | 0.369 | 0.0333
[2], first compound 0.004 µg/mL | – | 0.941 | 0.208 | 0.0502
[2], first compound 0.008 µg/mL | – | 0.931 | 0.134 | 0.0492
[3], first compound 0.01 µg/mL | – | 0.938 | 0.98 | 0.909
[3], first compound 0.02 µg/mL | – | 0.88 | 0.931 | 0.908
[3], first compound 0.04 µg/mL | – | 0.33 | 0.399 | 0.441

fitness, one replicate
Conditions | first compound 0.01 µg/mL | first compound 0.02 µg/mL | first compound 0.04 µg/mL | first compound 0.075 µg/mL | first compound 0.15 µg/mL | first compound 0.3 µg/mL
[2], partner 2 µg/mL | – | – | – | 0.534 | 0.0325 | 0.0421
[2], partner 4 µg/mL | – | – | – | 0.0966 | 0.025 | 0.0294
[2], partner 8 µg/mL | – | – | – | 0.0343 | 0.0288 | 0.0352
[3], partner 16 µg/mL | 0.887 | 0.863 | 0.436 | – | – | –

Conditions | Bliss interaction score
[4] | -0.0653
[5] | -0.0537
[6] | -0.113
[7] | 0.093

Cc1onc(-c2ccccc2)c1C(=O)N[C@@H]1C(=O)N2[C@@H]1SC(C)(C)[C@@H]2C(=O)O [Oxacillin] + COc1cc(Cc2cnc(N)nc2N)cc(OC)c1OC [Trimethoprim]
one replicate
Conditions | fitness
[2], first compound 0.002 µg/mL, partner 1 µg/mL | 0.498
[2], first compound 0.002 µg/mL, partner 2 µg/mL | 0.37
[2], first compound 0.004 µg/mL, partner 1 µg/mL | 0.418
[2], first compound 0.004 µg/mL, partner 2 µg/mL | 0.257
[2], first compound 0.0078 µg/mL, partner 0.1 µg/mL | 0.898
[2], first compound 0.0078 µg/mL, partner 0.125 µg/mL | 0.385
[2], first compound 0.0078 µg/mL, partner 0.2 µg/mL | 0.804
[2], first compound 0.0078 µg/mL, partner 0.4 µg/mL | 0.578
[2], first compound 0.008 µg/mL, partner 1 µg/mL | 0.351
[2], first compound 0.008 µg/mL, partner 2 µg/mL | 0.304
[2], first compound 0.0155 µg/mL, partner 0.1 µg/mL | 0.839
[2], first compound 0.0155 µg/mL, partner 0.125 µg/mL | 0.363
[2], first compound 0.0155 µg/mL, partner 0.2 µg/mL | 0.802
[2], first compound 0.0155 µg/mL, partner 0.4 µg/mL | 0.599
[2], first compound 0.031 µg/mL, partner 0.1 µg/mL | 0.882
[2], first compound 0.031 µg/mL, partner 0.125 µg/mL | 0.352
[2], first compound 0.031 µg/mL, partner 0.2 µg/mL | 0.763
[2], first compound 0.031 µg/mL, partner 0.4 µg/mL | 0.536
[2], first compound 0.075 µg/mL, partner 0.125 µg/mL | 0.0694
[2], first compound 0.075 µg/mL, partner 0.25 µg/mL | 0.0331
[2], first compound 0.075 µg/mL, partner 0.5 µg/mL | 0.026
[2], first compound 0.15 µg/mL, partner 0.125 µg/mL | 0.0313
[2], first compound 0.15 µg/mL, partner 0.25 µg/mL | 0.0424
[2], first compound 0.15 µg/mL, partner 0.5 µg/mL | 0.0705
[2], first compound 0.3 µg/mL, partner 0.125 µg/mL | 0.0436
[2], first compound 0.3 µg/mL, partner 0.25 µg/mL | 0.0503
[2], first compound 0.3 µg/mL, partner 0.5 µg/mL | 0.0489
[8], first compound 0.0156 µg/mL, partner 0.125 µg/mL | 0.558
[8], first compound 0.0312 µg/mL, partner 0.125 µg/mL | 0.523
[8], first compound 0.0625 µg/mL, partner 0.125 µg/mL | 0.477

fitness
Conditions | partner 0.25 µg/mL | partner 0.5 µg/mL | partner 1 µg/mL
[2], first compound 0.002 µg/mL | – | 0.46 | –
[2], first compound 0.004 µg/mL | – | 0.475 | –
[2], first compound 0.008 µg/mL | – | 0.467 | –
[2], first compound 0.031 µg/mL | – | 0.384 | –
[8], first compound 0.0156 µg/mL | 0.561 | 0.129 | 0.0621
[8], first compound 0.0312 µg/mL | 0.559 | 0.147 | 0.0523
[8], first compound 0.0625 µg/mL | 0.438 | 0.0674 | 0.0399

Conditions | Bliss interaction score
[4] | 0.0401
[5] | -0.0935
[6] | 0.0589
[7] | 0.164

C[n+]1ccc(-c2cc[n+](C)cc2)cc1 [Paraquat] + CN(C)c1cc(NC(=O)CNC(C)(C)C)c(O)c2c1C[C@H]1C[C@H]3[C@H](N(C)C)C(O)=C(C(N)=O)C(=O)[C@@]3(O)C(O)=C1C2=O [Tigecycline]
fitness
Conditions | first compound 1.25 µg/mL | first compound 1.5 µg/mL | first compound 2.5 µg/mL | first compound 3 µg/mL | first compound 5 µg/mL | first compound 6 µg/mL
[1], partner 0.039 µg/mL | 0.905 | – | 0.929 | – | 0.881 | –
[1], partner 0.078 µg/mL | ≥ 1 | – | 0.952 | – | 0.934 | –
[1], partner 0.156 µg/mL | 0.975 | – | 0.925 | – | 0.898 | –
[2], partner 0.039 µg/mL | 0.982 | – | 0.975 | – | 0.88 | –
[2], partner 0.078 µg/mL | 0.919 | – | 0.957 | – | 0.86 | –
[2], partner 0.156 µg/mL | 0.94 | – | 0.93 | – | 0.84 | –
[3], partner 0.65 µg/mL | – | 0.974 | – | 0.967 | – | 0.939
[3], partner 1.3 µg/mL | – | 0.956 | – | 0.986 | – | 0.951
[3], partner 2.6 µg/mL | – | 0.923 | – | 0.9 | – | 0.898

fitness, [2], one replicate
Conditions | first compound 1.25 µg/mL | first compound 2.5 µg/mL | first compound 5 µg/mL
partner 0.125 µg/mL | ≥ 1 | ≥ 1 | ≥ 1
partner 0.25 µg/mL | ≥ 1 | 0.93 | 0.941
partner 0.5 µg/mL | 0.998 | 0.973 | 0.893

Conditions | Bliss interaction score
[4] | 0.0449
[5] | 0.0431
[6] | -0.0331
[7] | -0.0568

C[n+]1ccc(-c2cc[n+](C)cc2)cc1 [Paraquat] + CN[C@@H]1[C@H](O[C@H]2[C@H](O[C@H]3[C@H](O)[C@@H](O)[C@H](N=C(N)N)[C@@H](O)[C@@H]3N=C(N)N)O[C@@H](C)[C@]2(O)C=O)O[C@@H](CO)[C@H](O)[C@H]1O [Streptomycin]
fitness
Conditions | partner 1 µg/mL | partner 2 µg/mL | partner 4 µg/mL | partner 8 µg/mL
[1], first compound 1.25 µg/mL | 0.99 | 0.882 | – | –
[1], first compound 2.5 µg/mL | 0.907 | 0.912 | – | –
[1], first compound 5 µg/mL | 0.908 | 0.859 | – | –
[2], first compound 1.25 µg/mL | – | 0.886 | – | 0.0237
[2], first compound 2.5 µg/mL | – | 0.924 | – | 0.0505
[2], first compound 5 µg/mL | – | 0.777 | 0.26 | 0.0406
[3], first compound 1.5 µg/mL | – | 0.953 | 0.983 | 0.89
[3], first compound 3 µg/mL | – | 0.967 | 0.964 | 0.884
[3], first compound 6 µg/mL | – | 0.946 | 0.916 | 0.866

[3], partner 16 µg/mL, one replicate
Conditions | fitness
first compound 1.5 µg/mL | 0.865
first compound 3 µg/mL | 0.857
first compound 6 µg/mL | 0.722

Conditions | Bliss interaction score
[4] | 0.118
[5] | 0.0567
[6] | -0.119
[7] | -0.0799
